{"source": "patent US20120329815A1", "about": "“Famciclovir for the Treatment of Recurrent Herpes Labialis using a One-Day Treatment” (priority 2005, published 2012)", "key": {"[1]": {"test_system": "orolabial herpes infection", "conditions": "200 mg or 400 mg five times a day for five days; cited from earlier work"}, "[2]": {"test_system": "recurrent herpes labialis", "conditions": "500 mg three times a day for five days; immunocompetent adult patients; cited from earlier work"}, "[3]": {"test_system": "recurrent herpes labialis", "assay": "Study 2403: randomized, double-blind, placebo-controlled trial of patient-initiated one-day therapy, efficacy", "assay_type": "in vivo, human", "conditions": "for Hazard ratio vs placebo, time to healing of all (non-aborted and aborted) lesions / Proportion of patients with aborted lesions / Time to healing of all (non-aborted and aborted) lesions (median): ITT; for Time to healing of all (non-aborted and aborted) lesions (median): aborted lesions assigned time zero", "text": "This study design is a parallel-group, double-blind, double-dummy, randomized placebo-controlled trial of patient initiated therapy in adult immunocompetent patients with recurrent herpes labialis.\nAdult immunocompetent patients with a history of recurrent herpes labialis and at least three episodes in the previous 12 months are selected. These patients have a history of prodromal symptoms preceding at least 50% of their herpes labialis episodes and a history of vesicular lesions occurring in at least 50% of those episodes.\nAfter screening, a total of 900 eligible patients are randomly assigned to one of three treatment groups and are dispensed study medication. The overall assignment ratio is 1:1:1. Patients are instructed to initiate treatment within one hour of the first prodromal symptom without any clinical signs of a recurrent episode of herpes labialis.\nGroup 1, famciclovir 1500 mg daily (1500 mg po followed by placebo 12 hours later)\nGroup 2, famciclovir 1500 mg daily (750 mg po b.i.d.) or\nGroup 3, matching placebo capsules (po b.i.d.).\nThe criteria for evaluation include the primary efficacy variable and secondary efficacy variables. The primary efficacy variable is the investigator-assessed time to healing (re-epithelialization) of the non-aborted primary lesion complex, defined as the time from start of treatment until loss of crust (erythema may have been present). Secondary efficacy variables include time to healing of all non-aborted lesions (primary lesion complex and secondary lesions), time to healing of all lesions (non-aborted and aborted; latter assigned a time to healing of zero), and proportion of patients with aborted lesions.\nLesion healing for vesicular lesions is defined as loss of crust, although erythema may still be present. At each visit starting with Visit 2, the investigator makes assessments based on both the investigator examination of the current visit and patient diary entries since the previous visit. If healing is confirmed, the time of healing is defined as the earliest time it was reported and continuously maintained in the diary. This convention applies to the assessment of both the primary lesion complex and all vesicular lesions.\nThe Kaplan-Meier method is used to estimate the distribution of time to healing for each treatment group and the median time to healing. Estimated survival curves are plotted. The 95% confidence intervals for the median times to healing are constructed based on the first-order Taylor series approximation of their standard errors using the standard errors of the estimated survival functions. The 95% confidence intervals for between-treatment median differences are constructed using standard errors.\nThe overall distribution of the time to healing will be compared among treatment groups using the proportional hazards model, with treatment and center as the explanatory, variables. The Efron approximate likelihood method will be used for resolution of ties. Confidence intervals for the hazard ratios will be provided.\nVariable 1, the primary efficacy variable, is the investigator-assessed time to healing of the primary lesion complex, defined as the time from start of treatment until loss of crust (for vesicular (classical) lesions progressing through the vesicle/ulcer stage only, erythema is allowed).\nThe primary efficacy variable, investigator-assessed time to healing of the primary lesion complex, is analyzed over the modified ITT population in two approaches: the primary estimation is based on the Kaplan-Meier method, and statistical testing is based on the proportional hazards model.\nSecondary efficacy variables include variables 2-7. Variable 2 is the time to healing (lost of crust) of the primary lesion complex (non-vesicular lesions will be assigned a time of zero). Variable 3 is the time to healing (loss of crust) of all vesicular lesions (non-vesicular lesions will be assigned a time of zero). […]"}, "[4]": {"assay": "Study 2403: safety and tolerability evaluation", "assay_type": "in vivo, human", "conditions": "high-dose one-day treatment (750 mg b.i.d. or 1,500 mg q.d.), immunocompetent patients", "text": "The assessment of safety is based mainly on the frequency of adverse events. Adverse events are summarized by presenting, for each treatment group, the number and percentage of patients having any adverse event, having an adverse event in each body system and having each individual adverse event. Any other information collected (e.g., severity or relatedness to study medication) will be listed as appropriate.\nThe safety and ITT populations include all randomized patients who are exposed to (take any) study medication. Using the above definitions, the safety and ITT populations comprise the same patients. For compatibility with the standard presentations, all safety summaries are referenced using the Safety population while appropriate efficacy summaries (for secondary parameters involving both vesicular and non-vesicular lesions) are referenced using the ITT population."}, "herpes labialis": {"test_system": "herpes labialis", "conditions": "2,000 mg twice a day for one day; immunocompetent adult patients; cited from earlier work"}, "[5]": {"conditions": "750 mg b.i.d. for one day, Modified ITT"}, "[6]": {"conditions": "750 mg b.i.d. for one day, Per Protocol"}, "[7]": {"conditions": "1500 mg q.d. single dose, Modified ITT"}, "[8]": {"conditions": "1500 mg q.d. single dose, Per Protocol"}}}
{"smiles": "Nc1nc2c(ncn2COCCO)c(=O)[nH]1", "note": "[acyclovir]", "values": [{"measurement": "Time to healing of vesicular lesions and pain", "setting": "[1]", "value": "significant but limited reduction"}]}
{"smiles": "CC(=O)OCC(CCn1cnc2cnc(N)nc21)COC(C)=O", "note": "[Famciclovir, 9-(4-acetoxy-3-acetoxymethylbut-1-yl)-2-aminopurine]", "values": [{"measurement": "Size of lesions as compared to placebo", "setting": "[2]", "value": "reduction of the size of lesions"}, {"measurement": "Time to healing as compared to placebo", "setting": "[2]", "value": "shorter time to healing"}, {"measurement": "Hazard ratio vs placebo, time to healing of all (non-aborted and aborted) lesions", "setting": "[3]; 750 mg b.i.d. for one day", "value": 1.39}, {"measurement": "Proportion of patients with aborted lesions", "setting": "[3]; 750 mg b.i.d. for one day", "value": 29, "unit": "%"}, {"measurement": "Time to healing of all (non-aborted and aborted) lesions (median)", "setting": "[3]; 750 mg b.i.d. for one day", "value": 3.0, "unit": "days"}, {"measurement": "Hazard ratio vs placebo, time to healing of all non-aborted (primary and secondary) lesions", "setting": "[3]; [5]", "value": 2.06}, {"measurement": "Hazard ratio vs placebo, time to healing of primary lesion complex", "setting": "[3]; [5]", "value": 2.05}, {"measurement": "Time to healing of all non-aborted (primary and secondary) lesions (median)", "setting": "[3]; [5]", "value": 4.1, "unit": "days"}, {"measurement": "Time to healing of primary lesion complex (median)", "setting": "[3]; [5]", "value": 4.0, "unit": "days"}, {"measurement": "Hazard ratio vs placebo, time to healing of primary lesion complex", "setting": "[3]; [6]", "value": 2.06}, {"measurement": "Time to healing of primary lesion complex (median)", "setting": "[3]; [6]", "value": 4.0, "unit": "days"}, {"measurement": "Hazard ratio vs placebo, time to healing of all (non-aborted and aborted) lesions", "setting": "[3]; 1500 mg q.d. single dose", "value": 1.34}, {"measurement": "Proportion of patients with aborted lesions", "setting": "[3]; 1500 mg q.d. single dose", "value": 33, "unit": "%"}, {"measurement": "Time to healing of all (non-aborted and aborted) lesions (median)", "setting": "[3]; 1500 mg q.d. single dose", "value": 2.9, "unit": "days"}, {"measurement": "Hazard ratio vs placebo, time to healing of all non-aborted (primary and secondary) lesions", "setting": "[3]; [7]", "value": 1.71}, {"measurement": "Hazard ratio vs placebo, time to healing of primary lesion complex", "setting": "[3]; [7]", "value": 1.64}, {"measurement": "Time to healing of all non-aborted (primary and secondary) lesions (median)", "setting": "[3]; [7]", "value": 4.5, "unit": "days"}, {"measurement": "Time to healing of primary lesion complex (median)", "setting": "[3]; [7]", "value": 4.4, "unit": "days"}, {"measurement": "Hazard ratio vs placebo, time to healing of primary lesion complex", "setting": "[3]; [8]", "value": 1.71}, {"measurement": "Time to healing of primary lesion complex (median)", "setting": "[3]; [8]", "value": 4.4, "unit": "days"}, {"measurement": "Safety and tolerability", "setting": "[4]", "value": "safe, well-tolerated"}, {"measurement": "Safety and tolerability", "setting": "[4]; listed as FCV", "value": "well tolerated and as safe as placebo"}]}
{"smiles": "CC(C)[C@H](N)C(=O)OCCOCn1cnc2c(=O)[nH]c(N)nc21", "note": "[Valacyclovir]", "values": [{"measurement": "Median time to healing of lesions as compared to placebo", "setting": "herpes labialis", "value": "reduced by approximately one day"}]}
